# Where “and” joins values, the source holds several entries; their conditions need not be identical. Equal entries are not always repeated. Where two headings read alike, the source gives them in different places.
# Assays:
# [1] = system: DPPIV-intact normal male Fisher rats; assay: Influences of metformin and DPPIV inhibitors (Examples 82, 119, 120, 122, 229, 267), singly or in combination, on GLP-1 level in normal rats; type: in vivo, rat
# Method: Animals: DPPIV-Intact Normal Male Fisher Rats (Purchased from CLEA Japan, Inc.)
# 250 μL of blood was collected from the rat using a heparinized capillary and transferred into a centrifugation tube.
# [2] = system: Zucker fa/fa rats; conditions: for Blood glucose level at each time point (hr) after oral glucose administration / GLP-1 concentration at each time point (hr) after oral glucose administration (% of Pre) / Insulin concentration at each time point (hr) after oral glucose administration: 300 mg/kg p.o. 0.5 hour before glucose load
# Method: (§1) Animals: Zucker fa/fa Rats, an Animal Model for TypeII Diabetes (Purchased from Charles River Japan, Inc.)
# (§2) Each test compound was dissolved in distilled water at the doses shown in the Tables indicated below, and then administered orally at a volume of 5 mL/kg. The vehicle control group was orally administered distilled water at a volume of 5 mL/kg. […] The rats were tested for glucose tolerance on the first day of the administration series. In the test, distilled water and the test compounds were given 0.5 hour before glucose load.
# For the glucose tolerance test, an unanesthetized rat was lightly cut at the caudal vein with a razor blade and bled immediately before the administration of a test compound or distilled water, and immediately before, and at 0.5, 1, 2, and 3 hours after glucose load. 250 μL of blood was collected from the rat using a heparinized capillary and transferred into a centrifugation tube. The supernatant obtained by centrifugation (at 10000 g at 4° C. for 2 minutes) was assayed for active GLP-1 level using Active GLP-1 ELISA kit (Linco). At the same time, 10 μL of blood was collected and mixed with 140 μL of a 0.6 M perchloric acid solution. The mixture was centrifuged (at 3000 g at 4° C. for 10 minutes), and the resulting supernatant was assayed for glucose using Glucose Test Wako II (Wako Pure Chemical Industries, Inc.). The level of blood glucose alone was determined at the time of measurement 3 hours after glucose load.
# [3] = system: Zucker fa/fa rats; conditions: 300 mg/kg p.o. twice daily for 14 days
# Method: as §1, §2
# Food intake and body weight were determined at 4:00 p.m after the 14-day administration series. Total food intake and weight gain over 14 days were determined for each experimental group.
# [4] = system: DPPIV-deficient male Fisher rats; assay: Influence of metformin on the level of GLP-2 in DPPIV-deficient rats; type: in vivo, rat; conditions: 300 mg/kg p.o.; for GLP-2 concentration at each time point (hr) after oral administration (ng/ml): listed as metformin
# Method: Animals: DPPIV-Deficient Male Fisher Rats (Purchased from Charles River Japan, Inc.)
# The test compound was suspended in a solution of 0.5% methyl cellulose at the dose indicated in Table 11, and then administered orally at a volume of 5 mL/kg. The vehicle control group was orally administered an aqueous solution of 0.5% methyl cellulose at a volume of 5 mL/kg.
# An unanesthetized rat was lightly cut at the caudal vein with a razor blade and bled immediately before, and at 1, 3, and 5 hours after administration of a test compound or a solution of 0.5% methyl cellulose. 250 μL of blood was collected from the rat using a heparinized capillary and transferred into a centrifugation tube. The supernatant obtained by centrifugation (at 10000 g at 4° C. for 2 minutes) was assayed for GLP-2 level using GLP-2 ELISA kit (Yanaihara Institute Inc.).
# [5] = system: DPPIV-deficient male Fisher rats
# Method: Animals: DPPIV-deficient male Fisher rats (purchased from Charles River Japan, Inc.)
# Each test compound was suspended in a solution of 0.5% methyl cellulose at the doses indicated in Table 2, and then administered orally at a volume of 5 mL/kg. The vehicle control group was orally administered a solution of 0.5% methyl cellulose at a volume of 5 mL/kg.
# An unanesthetized rat was lightly cut at the caudal vein with a razor blade and bled immediately before, and at 1, 3, and 5 hours after the administration of a test compound or a solution of 0.5% methyl cellulose. 250 μL of blood was collected from the rat using a heparinized capillary and transferred into a centrifugation tube. The supernatant obtained by centrifugation (at 10000 g at 4° C. for 2 minutes) was assayed for GLP-1 level using Active GLP-1 ELISA kit (Linco).
# [6] = system: DPPIV-intact normal male Fisher rats; conditions: for GLP-1 concentration at each time point (hr) after oral administration (% of Pre): 300 mg/kg p.o.
# Method: Each test compound was suspended in a solution of 0.5% methyl cellulose at the doses indicated in Table 3, and then administered orally at a volume of 5 mL/kg. The vehicle control group was orally administered a solution of 0.5% methyl cellulose at a volume of 5 mL/kg.
# An unanesthetized rat was lightly cut at the caudal vein with a razor blade and bled immediately before, and at 1, 3, and 5 hours after administration of a test compound or a solution of 0.5% methyl cellulose. 250 μL of blood was collected from the rat using a heparinized capillary and transferred into a centrifugation tube. The supernatant obtained by centrifugation (at 10000 g at 4° C. for 2 minutes) was assayed for GLP-1 level using Active GLP-1 ELISA kit (Linco).
# [7] = system: BALB/c AnCrj mice; conditions: 300 mg/kg p.o. twice a day, 5-FU treatment 60 mg/kg for 3 days, mice
# Method: Animals: BALB/c AnCrj Mice (Purchased from Charles River Japan, Inc.)
# 5-FU (purchased from Sigma) was suspended in a solution of 0.5% methyl cellulose, and then administered orally at a volume of 10 mL/kg/day (8 a.m. to 9 a.m.) for 3 days (60 mg/kg). […] The vehicle control group was orally administered a solution of 0.5% methyl cellulose at a volume of 10 mL/kg.
# Mice were fasted for 18 hours following the afternoon administration on the third day of the administration series. On the following day, the mice were killed by cervical dislocation, and then the whole small intestine was excised and the wet weight was measured.
smiles,measurement,setting,value
"CN(C)C(=N)N=C(N)N [Metformin, metformin]",GLP-1 concentration 3 hours after oral administration (% of Pre),"[1]; 300 mg/kg p.o., 3 hours",118.1 ± 7.5 % of Pre and 108.6 ± 2.2 % of Pre and 112.5 ± 2.4 % of Pre
same,level of active GLP-1,[1]; 3 hours after administration,no increase
same,level of active GLP-1 during the glucose tolerance test,[2],no significant increase
same,level of insulin during the glucose tolerance test,[2],no significant increase
same,Blood glucose level at each time point (hr) after oral glucose administration,[2]; 0 hr,117.4 ± 5.5 mg/dL
same,GLP-1 concentration at each time point (hr) after oral glucose administration (% of Pre),[2]; 0 hr,105.6 ± 1.7 % of Pre
same,Insulin concentration at each time point (hr) after oral glucose administration,[2]; 0 hr,14.0 ± 1.1 ng/mL
same,Blood glucose level at each time point (hr) after oral glucose administration,[2]; 0.5 hr,160.6 ± 9.7 mg/dL
same,GLP-1 concentration at each time point (hr) after oral glucose administration (% of Pre),[2]; 0.5 hr,135.4 ± 7.6 % of Pre
same,Insulin concentration at each time point (hr) after oral glucose administration,[2]; 0.5 hr,22.9 ± 2.5 ng/mL
same,Blood glucose level at each time point (hr) after oral glucose administration,[2]; 1 hr,177.5 ± 10.6 mg/dL
same,GLP-1 concentration at each time point (hr) after oral glucose administration (% of Pre),[2]; 1 hr,126.0 ± 8.9 % of Pre
same,Insulin concentration at each time point (hr) after oral glucose administration,[2]; 1 hr,21.2 ± 2.3 ng/mL
same,Blood glucose level at each time point (hr) after oral glucose administration,[2]; 2 hr,159.8 ± 8.6 mg/dL
same,GLP-1 concentration at each time point (hr) after oral glucose administration (% of Pre),[2]; 2 hr,118.4 ± 6.5 % of Pre
same,Insulin concentration at each time point (hr) after oral glucose administration,[2]; 2 hr,16.9 ± 1.6 ng/mL
same,Blood glucose level at each time point (hr) after oral glucose administration,[2]; 3 hr,122.4 ± 3.7 mg/dL
same,Blood glucose level at each time point (hr) after oral glucose administration,[2]; −0.5 hr,108.9 ± 5.6 mg/dL
same,GLP-1 concentration at each time point (hr) after oral glucose administration (% of Pre),[2]; −0.5 hr,100.0 ± 0.0 % of Pre
same,Insulin concentration at each time point (hr) after oral glucose administration,[2]; −0.5 hr,11.9 ± 1.1 ng/mL
same,glucose tolerance,[2]; glucose tolerance test,improved
same,Total food intake for 14 days,[3],495.1 ± 8.9 g
same,Weight gain for 14 days,[3],64.5 ± 3.5 g
same,GLP-2 concentration at each time point (hr) after oral administration,[4]; 0 hr,1.32 ± 0.02 ng/mL
same,GLP-2 concentration at each time point (hr) after oral administration,[4]; 1 hr,1.65 ± 0.06 ng/mL
same,GLP-2 concentration at each time point (hr) after oral administration (ng/ml),[4]; 1 hr,significantly elevated
same,GLP-2 concentration at each time point (hr) after oral administration,[4]; 3 hr,2.08 ± 0.07 ng/mL
same,GLP-2 concentration at each time point (hr) after oral administration (ng/ml),[4]; 3 hr,significantly elevated
same,GLP-2 concentration at each time point (hr) after oral administration,[4]; 5 hr,2.15 ± 0.05 ng/mL
same,GLP-2 concentration at each time point (hr) after oral administration (ng/ml),[4]; 5 hr,significantly elevated
same,GLP-1 concentration at each time point (hr) after oral administration (% of Pre),"[5]; 30 mg/kg p.o., 0 hr",100 ± 0.0 % of Pre
same,GLP-1 concentration at each time point (hr) after oral administration (% of Pre),"[5]; 30 mg/kg p.o., 1 hr",99.9 ± 3.7 % of Pre
same,GLP-1 concentration at each time point (hr) after oral administration (% of Pre),"[5]; 30 mg/kg p.o., 3 hr",106.6 ± 5.0 % of Pre
same,GLP-1 concentration at each time point (hr) after oral administration (% of Pre),"[5]; 30 mg/kg p.o., 5 hr",116.3 ± 2.7 % of Pre
same,GLP-1 concentration at each time point (hr) after oral administration (% of Pre),"[5]; 100 mg/kg p.o., 0 hr",100 ± 0.0 % of Pre
same,GLP-1 concentration at each time point (hr) after oral administration (% of Pre),"[5]; 100 mg/kg p.o., 1 hr",111.6 ± 7.9 % of Pre
same,GLP-1 concentration at each time point (hr) after oral administration (% of Pre),"[5]; 100 mg/kg p.o., 3 hr",116.3 ± 8.2 % of Pre
same,GLP-1 concentration at each time point (hr) after oral administration (% of Pre),"[5]; 100 mg/kg p.o., 5 hr",150.6 ± 7.2 % of Pre
same,GLP-1 concentration at each time point (hr) after oral administration (% of Pre),"[5]; 300 mg/kg p.o., 0 hr",100 ± 0.0 % of Pre
same,GLP-1 concentration at each time point (hr) after oral administration (% of Pre),"[5]; 300 mg/kg p.o., 1 hr",140.0 ± 11.5 % of Pre
same,GLP-1 concentration at each time point (hr) after oral administration (% of Pre),"[5]; 300 mg/kg p.o., 3 hr",199.3 ± 32.4 % of Pre
same,GLP-1 concentration at each time point (hr) after oral administration (% of Pre),"[5]; 300 mg/kg p.o., 5 hr",227.1 ± 35.5 % of Pre
same,GLP-1 concentration at each time point (hr) after oral administration (% of Pre),"[5]; 300 mg/kg p.o., 5 hr, listed as metformin",significantly elevated
same,GLP-1 concentration at each time point (hr) after oral administration (% of Pre),[6]; 0 hr,100 ± 0.0 % of Pre
same,GLP-1 concentration at each time point (hr) after oral administration (% of Pre),[6]; 1 hr,117 ± 9 % of Pre
same,GLP-1 concentration at each time point (hr) after oral administration (% of Pre),[6]; 3 hr,149 ± 24 % of Pre
same,GLP-1 concentration at each time point (hr) after oral administration (% of Pre),[6]; 5 hr,94 ± 10 % of Pre
same,level of active GLP-1,[6]; given singly,no increase
same,Wet weight of small intestine,[7],0.642 ± 0.017 g
same,Wet weight of small intestine (g),[7]; listed as metformin,no alteration

# — US20060094722A1 (Eisai Co., Ltd., priority 2002, published 2006)
